As usually defined, the MIC90 is the lowest concentration that inhibits either 90% of growth or 90% of the strains tested, depending on the study.

The structures appear in SMILES notation.

Experimental findings from ChEMBL document CHEMBL1649268, “Comparative in vitro activity profile of oritavancin against recent gram-positive clinical isolates” (2009) are described below.

Holding throughout (format): functional
The test system of assay [1] is Streptococcus pneumoniae. Description: Antimicrobial activity against Streptococcus pneumoniae clinical isolates by broth microdilution method in presence of clavulanate. For orientation: Dilution methods test growth across graded concentrations, often in twofold steps.
Assay [2] deals with Streptococcus pneumoniae. The experiment in a line: Antimicrobial activity against penicillin-susceptible Streptococcus pneumoniae clinical isolates by broth microdilution method in presence of clavulanate.
For assay [3], the system named is Streptococcus pneumoniae. Description: Antimicrobial activity against penicillin-intermediate Streptococcus pneumoniae clinical isolates by broth microdilution method in presence of clavulanate.
In assay [4] the test system is Streptococcus pneumoniae. Description: Antimicrobial activity against penicillin-resistant Streptococcus pneumoniae clinical isolates by broth microdilution method in presence of clavulanate.
For assay [5], the system named is Streptococcus pneumoniae. Description: Antimicrobial activity against Streptococcus pneumoniae clinical isolates assessed as percent susceptible isolates by broth microdilution method in presence of clavulanate.
Assay [6] concerns Streptococcus pneumoniae. The experiment in a line: Antimicrobial activity against penicillin-susceptible Streptococcus pneumoniae clinical isolates assessed as percent susceptible isolates by broth microdilution method in presence of clavulanate.
The subject of assay [7] is Streptococcus pneumoniae. The experiment in a line: Antimicrobial activity against penicillin-intermediate Streptococcus pneumoniae clinical isolates assessed as percent susceptible isolates by broth microdilution method in presence of clavulanate.
The test system of assay [8] is Streptococcus pneumoniae. Description: Antimicrobial activity against penicillin-resistant Streptococcus pneumoniae clinical isolates assessed as percent susceptible isolates by broth microdilution method in presence of clavulanate.
In assay [9] the test system is Streptococcus pneumoniae. Description: Antimicrobial activity against Streptococcus pneumoniae clinical isolates assessed as resistant isolates by broth microdilution method in presence of clavulanate.
Assay [10] deals with Streptococcus pneumoniae. Description: Antimicrobial activity against penicillin-susceptible Streptococcus pneumoniae clinical isolates assessed as resistant isolates by broth microdilution method in presence of clavulanate.
Assay [11] concerns Streptococcus pneumoniae. The experiment in a line: Antimicrobial activity against penicillin-intermediate Streptococcus pneumoniae clinical isolates assessed as resistant isolates by broth microdilution method in presence of clavulanate.
Assay [12] concerns Streptococcus pneumoniae. Description: Antimicrobial activity against penicillin-resistant Streptococcus pneumoniae clinical isolates assessed as resistant isolates by broth microdilution method in presence of clavulanate.

For the molecule `CC1(C)S[C@@H]2[C@H](NC(=O)[C@H](N)c3ccc(O)cc3)C(=O)N2[C@H]1C(=O)O` [AMOXICILLIN], the MIC90 in the assay with Streptococcus pneumoniae [1] was 2 µg/mL; in the assay on Streptococcus pneumoniae [2], 0.03 µg/mL; in the assay with Streptococcus pneumoniae [3], 1 µg/mL; in the assay on Streptococcus pneumoniae [4], 8 µg/mL. Further, the Activity in the assay on Streptococcus pneumoniae [5] came out at 93.1%; with Streptococcus pneumoniae [6] it was 100%; with Streptococcus pneumoniae [7], 99.5%; with Streptococcus pneumoniae [8], 53.4%; with Streptococcus pneumoniae [9], 1.5%; in the assay with Streptococcus pneumoniae [10], 0%. Further, the Activity is 0% in the assay with Streptococcus pneumoniae [11] and 10.1% in the assay on Streptococcus pneumoniae [12].
